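In this assay, cells in 96-well plates receive the compound at five concentrations for 48 hours. Endpoints are linearly interpolated between the surrounding concentrations. Abbreviation: GI50, concentration required for 50% inhibition of growth.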 Calls of active or inactive are those of the source. No stated cut-off is given here; in the data, active = GI50 up to about 1.1 µM and inactive = higher.
Tests used:
Experiment in all cases: growth of human tumour cells (NCI), 48 h
SF-268 = test system: SF-268
EKVX = test system: EKVX
MDA-MB-435 = test system: MDA-MB-435
CCRF-CEM = test system: CCRF-CEM
SK-MEL-28 = test system: SK-MEL-28
A549 = test system: A549
SK-MEL-2 = test system: SK-MEL-2
NCI-H522 = test system: NCI-H522
UO-31 = test system: UO-31
PC-3 = test system: PC-3
SK-OV-3 = test system: SK-OV-3
SR = test system: SR
Malme-3M = test system: Malme-3M
NCI-H23 = test system: NCI-H23
HOP-62 = test system: HOP-62
SF-295 = test system: SF-295
M14 = test system: M14
OVCAR-3 = test system: OVCAR-3
SW-620 = test system: SW-620
HCC 2998 = test system: HCC 2998

SMILES	GI50 (SF-268)	GI50 (EKVX)	GI50 (MDA-MB-435)	GI50 (CCRF-CEM)	GI50 (SK-MEL-28)	GI50 (A549)	GI50 (SK-MEL-2)	GI50 (NCI-H522)	GI50 (UO-31)	GI50 (PC-3)	GI50 (SK-OV-3)	GI50 (SR)	GI50 (Malme-3M)	GI50 (NCI-H23)	GI50 (HOP-62)	GI50 (SF-295)	GI50 (M14)	GI50 (OVCAR-3)	GI50 (SW-620)	GI50 (HCC 2998)
C/C(=N/O)c1cccc(Nc2nc3ccccc3c3[nH]c4ccccc4c23)c1	1.87 µM (inactive)	2.29 µM (inactive)	2.5 µM (inactive)	2.39 µM (inactive)	3.6 µM (inactive)	2.22 µM (inactive)	2.25 µM (inactive)	1.5 µM (inactive)	2.88 µM (inactive)	2.93 µM (inactive)	5.98 µM (inactive)	1.15 µM (inactive)	3.92 µM (inactive)	3.08 µM (inactive)	2.29 µM (inactive)	1.98 µM (inactive)	2.6 µM (inactive)	2.22 µM (inactive)	1.63 µM (inactive)	
C=CCOc1ccc(C2c3c(n[nH]c3O)CC(C)(O)C2C(=O)OC)cc1OC (centres undefined)	> 100 µM (inactive)	> 100 µM (inactive)	> 100 µM (inactive)	> 100 µM (inactive)	> 100 µM (inactive)	> 100 µM (inactive)	> 100 µM (inactive)	> 100 µM (inactive)	> 100 µM (inactive)	> 100 µM (inactive)		> 100 µM (inactive)	> 100 µM (inactive)	> 100 µM (inactive)	> 100 µM (inactive)	> 100 µM (inactive)	> 100 µM (inactive)	> 100 µM (inactive)	> 100 µM (inactive)	> 100 µM (inactive)
O=c1c2cc([N+](=O)[O-])ccc2nc2n1CCCCC2	> 100 µM (inactive)	66.4 µM (inactive)	> 100 µM (inactive)	21.5 µM (inactive)	> 100 µM (inactive)	> 100 µM (inactive)	> 100 µM (inactive)	> 100 µM (inactive)	> 100 µM (inactive)	89.3 µM (inactive)	> 100 µM (inactive)	> 100 µM (inactive)	> 100 µM (inactive)	> 100 µM (inactive)	> 100 µM (inactive)	> 100 µM (inactive)	> 100 µM (inactive)	> 100 µM (inactive)	> 100 µM (inactive)	
COC(=O)C(CCCCNC(=O)CNC(=O)OCc1ccccc1)NC(=O)C(CCCCNC(=O)CNC(=O)OCc1ccccc1)NC(=O)OCc1ccccc1 (centres undefined)	78 µM (inactive)		19.8 µM (inactive)	42.8 µM (inactive)	53.8 µM (inactive)	> 100 µM (inactive)	19 µM (inactive)		> 100 µM (inactive)	96.2 µM (inactive)		41.8 µM (inactive)	46.2 µM (inactive)	> 100 µM (inactive)	> 100 µM (inactive)		> 100 µM (inactive)	53.3 µM (inactive)	> 100 µM (inactive)	52.2 µM (inactive)
COc1cc(C2c3cc4c(cc3[C@@H](Nc3ccc(F)cc3)C3COC[C@H]23)OCO4)cc(OC)c1O (some centres undefined)	3.85 µM (inactive)	9.91 µM (inactive)	6.15 µM (inactive)	0.622 µM (active)	5 µM (inactive)	0.451 µM (active)		3.22 µM (inactive)	0.488 µM (active)	3.26 µM (inactive)	4.98 µM (inactive)	0.543 µM (active)			2.45 µM (inactive)	0.877 µM (active)	2.22 µM (inactive)		3.15 µM (inactive)	6.85 µM (inactive)
O=C1CC(C(COCc2ccccc2)OCc2ccccc2)CC(=O)N1 (centres undefined)	> 100 µM (inactive)	> 100 µM (inactive)	> 100 µM (inactive)	> 100 µM (inactive)	> 100 µM (inactive)	> 100 µM (inactive)		> 100 µM (inactive)	> 100 µM (inactive)	83.2 µM (inactive)		> 100 µM (inactive)	> 100 µM (inactive)	> 100 µM (inactive)	> 100 µM (inactive)	> 100 µM (inactive)	> 100 µM (inactive)	> 100 µM (inactive)	> 100 µM (inactive)	> 100 µM (inactive)
O=C1/C(=C/c2ccc(Cl)cc2)Sc2scc(-c3cccc([N+](=O)[O-])c3)[n+]21	2.95 µM (inactive)	4.18 µM (inactive)	3.4 µM (inactive)	0.259 µM (active)	2.81 µM (inactive)	13.6 µM (inactive)	12.9 µM (inactive)	0.44 µM (active)	4.43 µM (inactive)	7.5 µM (inactive)	10.5 µM (inactive)	0.296 µM (active)		4.95 µM (inactive)	19.5 µM (inactive)	11.4 µM (inactive)	3.57 µM (inactive)	8.09 µM (inactive)	1.76 µM (inactive)	2.8 µM (inactive)
CC[C@@H]1ON(C)[C@H]2CN(C)C(=O)[C@@H]12			> 100 µM (inactive)	> 100 µM (inactive)	> 100 µM (inactive)	> 100 µM (inactive)	> 100 µM (inactive)	> 100 µM (inactive)	> 100 µM (inactive)	> 100 µM (inactive)	> 100 µM (inactive)	> 100 µM (inactive)		> 100 µM (inactive)	> 100 µM (inactive)	> 100 µM (inactive)	> 100 µM (inactive)	> 100 µM (inactive)	> 100 µM (inactive)	> 100 µM (inactive)
Cc1ccc(-c2cc(=O)c(=O)[nH][nH]2)cc1	> 100 µM (inactive)	> 100 µM (inactive)	> 100 µM (inactive)	> 100 µM (inactive)	> 100 µM (inactive)	> 100 µM (inactive)	> 100 µM (inactive)	36.9 µM (inactive)	> 100 µM (inactive)	> 100 µM (inactive)	> 100 µM (inactive)	> 100 µM (inactive)		> 100 µM (inactive)	> 100 µM (inactive)	> 100 µM (inactive)	> 100 µM (inactive)	> 100 µM (inactive)	> 100 µM (inactive)	> 100 µM (inactive)
CN1C2CCC1CC(CCNC(c1ccccc1)c1ccccc1)C2 (centres undefined)	35.3 µM (inactive)	24.9 µM (inactive)	6.81 µM (inactive)	36 µM (inactive)	17.3 µM (inactive)	71 µM (inactive)	16.7 µM (inactive)	25.2 µM (inactive)	17.2 µM (inactive)	37.6 µM (inactive)	> 100 µM (inactive)	15.3 µM (inactive)	17.3 µM (inactive)	> 100 µM (inactive)	19.7 µM (inactive)	22.5 µM (inactive)	11.6 µM (inactive)	47.4 µM (inactive)	79.6 µM (inactive)	
Cc1ccc(/C=C/C(=O)c2cc(CN(C)C)c(O)c(CN(C)C)c2)cc1	25.9 µM (inactive)	25.7 µM (inactive)	21.4 µM (inactive)	14.4 µM (inactive)	17.6 µM (inactive)	18.8 µM (inactive)		14.8 µM (inactive)	15.7 µM (inactive)	13.5 µM (inactive)		18.2 µM (inactive)	18.3 µM (inactive)	29 µM (inactive)	16.5 µM (inactive)	13.8 µM (inactive)	15.8 µM (inactive)	14.6 µM (inactive)	16.1 µM (inactive)	18.5 µM (inactive)
C=C1C[C@@H]2CC[C@@]34CC5O[C@H]6C(O[C@H]7CC[C@H](CC(=O)O[C@@H]8[C@@H](C)[C@@H]9O[C@@H]%10C[C@]%11(C[C@@H]%12O[C@]%13(C[C@H](C)[C@@H]%14O[C@@H]%15CC(C(COC(C)=O)OC(C)=O)O[C@@H]%15C[C@@H]%14O%13)C[C@H](C)[C@@H]%12O%11)O[C@@H]%10C[C@@H]9O[C@H]8CC8O[C@@H](CC[C@@H]1O2)C[C@@H](C)C8(O)CO)O[C@@H]7[C@@H]6O3)[C@H]5O4 (some centres undefined)	0.455 µM (active)	> 0.923 µM (active)	0.0826 µM (active)	0.995 µM (active)	> 1 µM (active)	0.413 µM (active)	0.721 µM (active)	0.137 µM (active)	> 0.805 µM (active)	0.399 µM (active)	> 1 µM (active)	0.117 µM (active)		0.264 µM (active)	> 1 µM (active)	0.297 µM (active)	0.587 µM (active)	0.431 µM (active)	0.6 µM (active)	0.00489 µM (active)
C#CC1(O)C(COP(=O)(O)OC(COCCCCCCCCCCCCCCCCCC)COP(=O)(O)OCC2OC(n3cc(C)c(=O)[nH]c3=O)CC2N=[N+]=[N-])OC(n2ccc(N)nc2=O)C1O (centres undefined)	0.957 µM (active)	5.25 µM (inactive)	0.859 µM (active)	0.562 µM (active)	2.31 µM (inactive)	0.29 µM (active)	0.382 µM (active)	0.083 µM (active)	0.194 µM (active)	2.86 µM (inactive)	4 µM (inactive)	< 0.0429 µM (active)	1.66 µM (inactive)	2.61 µM (inactive)	1.82 µM (inactive)	0.221 µM (active)	8.02 µM (inactive)	4.58 µM (inactive)	0.453 µM (active)	
O=C(COc1ccc(OCC(=O)NNC2=NC(c3cc(F)c(Cl)cc3Cl)CS2)c(Cl)c1)NNC1=NC(c2cc(F)c(Cl)cc2Cl)CS1 (centres undefined)		20.8 µM (inactive)	16.7 µM (inactive)	28.6 µM (inactive)	29.5 µM (inactive)	14.3 µM (inactive)	36.2 µM (inactive)	14.2 µM (inactive)	> 100 µM (inactive)	22.1 µM (inactive)	> 100 µM (inactive)	35.9 µM (inactive)	> 100 µM (inactive)	20.2 µM (inactive)	> 100 µM (inactive)	19.8 µM (inactive)	74 µM (inactive)		30.6 µM (inactive)	

— ChEMBL document CHEMBL1201862, “PubChem BioAssay data set” (2004)
